Where two headings read alike, the source gives them in different places.
Assays:
hLXRβ = biological target: T1, hLXRβ (Homo sapiens, UniProt P55055); assay: luciferase assay with GAL-4 chimeric hLXRβ receptor in human embryonic kidney 293 cells; assay type: cell-based; conditions: for Emax: HEK293, 24 h
T1 sequence (P55055 222-460 limits assumed): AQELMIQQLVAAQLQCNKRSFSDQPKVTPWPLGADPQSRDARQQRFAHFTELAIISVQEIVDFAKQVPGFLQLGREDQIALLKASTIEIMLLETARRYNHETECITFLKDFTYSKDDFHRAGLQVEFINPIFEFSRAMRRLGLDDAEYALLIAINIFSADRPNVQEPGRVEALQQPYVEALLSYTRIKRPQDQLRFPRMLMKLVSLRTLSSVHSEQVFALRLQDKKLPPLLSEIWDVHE
Protocol: (§1) All the synthesized compounds were first tested for their ability to activate LXRs by using luciferase assays with GAL-4 chimeric receptors. These were performed by co-transfecting plasmids encoding hLXRα- and β-binding domains fused to GAL-4, with the respective responsive element conjugated with the luciferase reporter gene into the human embryonic kidney 293 cells.
(§2) Cell Culture and Co-transfection Assays. Human embryonic Kidney 293 cells (American Type Culture Collection) were cultured in Dulbecco's Modified Eagle's medium containing 10% of fetal bovine serum at 37° C. in humidified atmosphere of 5% CO2. HEK293 cells (4×10^4 cells per well) were transiently transfected in 48 well plate with the reporter plasmids pMH100X4-TK-luc (100 ng/well), Renilla (22 ng/well) together with 100 ng/well of pCMX-Gal4-RXR, pCMX-Gal4-PPAR-γ, pCMX-Gal4-PXR, pFA-CMV-FXR pCMX-Gal4-LXR-α or pCMX-Gal4-LXR-β plasmids using X-tremeGENE 9 DNA Transfection Reagent (Roche). Six hours after transfection, the cells were treated with the appropriate compound for 24 hours. Luciferase activities were analyzed by luciferase Dual Reporter Assay Systems (Promega) according to the manufacturer's protocol. GAL4-LXRs, GAL4-PPAR-γ, GAL4-RXR and TK-MHC100-luc plasmids were described in Villablanca et al.49 GAL4-PXR was a kind gift of Dr. Enrique Sainz (The Scripps Research Institute, La Jolla, USA). GAL4-FXR was a kind gift of Dr. Daniel Merk (Goethe-University Frankfurt am Main). The results obtained by luciferase assays and reported in Table 1 are from three to five independent experiments.
(§3) Statistical analysis. Data are expressed as mean±SEM and were analyzed for significance by ANOVA with Dunnet's multiple comparison tests. The analysis was performed with Prism software. Data in Table 1 are expressed as EC50±SD. In particular, the standard deviations were obtained by calculating the mean of the EC50 of each experiment (three to five independent experiments). The efficacy (%) of the compounds was calculated as the percentage of the compound effect, in terms of LXRα or β activation, versus 8 μM of 22R—HC±SD. The analyses were performed with Prism software.

hPXR = assay: luciferase assay GAL4-hPXR in human embryonic kidney 293 cells; assay type: cell-based; conditions: compounds at 10 μM
Protocol: Human embryonic kidney 293 cells were co-transfected with GAL4-hRXR (A), GAL4-hPPARγ (B), GAL4-hPXR (C) and GAL4-hFXR (D) expression plasmids together with GAL4 responsive element pMHC100X4-TK-luc and Renilla plasmids. Cells were incubated with vehicle (DMSO), PFMs at the concentration of 10 μM, and the nuclear receptor specific ligands 9cis retinoic acid (100 nM) (A), Rosiglitazone (RSG 100 nM) (B), T0901317 (100 nM) (C) and GW4064 (100 nM) (D) for six hours. The values represent mean±S.D. RLA, relative luciferase activity.
The selectivity of our compounds within the nuclear receptor superfamily was also evaluated by luciferase assays using GAL4-RXR, -PPARγ, -PXR and -FXR plasmids.
as §2

MCP-1/CCL2 = assay: qPCR of CCL2 expression in differentiated U937 cells treated with LPS; assay type: cell-based, human; conditions: differentiated U937, 6 hours, 10 μM in combination with LPS (100 ng/ml)
Protocol: (§4) U937 cells differentiated with PMA for 72 hours were treated with LPS (100 ng/ml) in combination with T0901317 (10 μM) or with the title compounds (10 μM). […] (n=3/group). *p<0.05, **p<0.01, ***p<0.001.
(§5) Quantitative Real-Time-PCR. U937 cell line was differentiated in foam macrophages with phorbol 12-myristate 13-acetate (PMA) 10 ng/ml (Sigma) for 72 hours at 37° C. in […] at the concentration of 3×10^6 cells in 10 ml RPMI 10% FBS. At day 3 nuclear receptor ligands were added for 6 hours. HepG2 cells were treated with the ligands as described by Quinet et al.22 Total RNA was purified by TRIZOL (Invitrogen, Carlsbad, Calif., USA). Reverse transcription was performed incubating 2 μg of total RNA 1 hour at 42° C. with MLV-reverse transcriptase (Promega). Quantitative PCR was performed using Sybr Green Master Mix (Applied Biosystems) and real-time PCR (Viia 7 Real Time PCR System, Applied Biosystems). All PCR reactions were done in triplicate. The comparative Ct method was used to quantify transcripts that were normalized for human GAPDH. the following primer pairs were used: […]

hLXRα = biological target: T2, hLXRα (Homo sapiens, UniProt Q13133); assay: luciferase assay with GAL-4 chimeric hLXRα receptor in human embryonic kidney 293 cells; assay type: cell-based; conditions: for Emax: HEK293, 24 h, read-out: LXRα Efficacy (%) ± SD; for LXR isoform selectivity profile: LXRα versus LXRβ, GAL4 luciferase assays
T2 sequence (Q13133 209-447 limits assumed): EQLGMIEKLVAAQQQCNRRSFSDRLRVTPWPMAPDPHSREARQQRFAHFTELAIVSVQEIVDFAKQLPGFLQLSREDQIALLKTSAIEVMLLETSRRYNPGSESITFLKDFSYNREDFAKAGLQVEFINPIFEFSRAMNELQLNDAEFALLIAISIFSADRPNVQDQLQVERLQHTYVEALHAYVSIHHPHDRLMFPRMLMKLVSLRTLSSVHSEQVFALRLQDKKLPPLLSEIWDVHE
Protocol: as §1, §2, §3

TNFα = assay: qPCR of TNFα expression in differentiated U937 cells treated with LPS; assay type: cell-based, human; conditions: differentiated U937, 6 hours, 10 μM in combination with LPS (100 ng/ml)
Protocol: as §4, §5

[1] = GAL4-hLXRβ luciferase, HEK293, dose-response 32-1 μM, mean of three-five independent experiments, read-out: LXRβ EC50 (μM) ± SD
[2] = GAL4-hLXRα luciferase, HEK293, dose-response 32-1 μM, mean of three-five independent experiments, read-out: LXRα EC50 (μM) ± SD
[3] = % of compound effect versus 8 μM of 22R-HC
[4] = read-out: LXRβ Efficacy (%) ± SD, % of compound effect versus 8 μM of 22R-HC

CC(C)[C@@H](C)C[C@H](O)[C@@H](C)[C@H]1CC[C@H]2C3=CC=C4C[C@@H](O)CC[C@]4(C)[C@H]3CC[C@]12C [Compound 22, (22S)-3β-Ergost-5,7-diene-3,22-diol]
EC50 (hLXRβ; [1]): 1.96 ± 0.1 µM | PXR activation (hPXR): slight activation of PXR | inhibition of CCL2 expression (MCP-1/CCL2): same grade of potency of the positive control T0901317 | EC50 (hLXRα; [2]): 6.61 ± 1.69 µM

CC(C)[C@@H](C)CC(=O)[C@@H](C)[C@H]1CC[C@H]2C3=CC=C4C[C@@H](O)CC[C@]4(C)[C@H]3CC[C@]12C [Compound 28, 3β-Hydroxyergost-5,7-diene-22-one]
EC50 (hLXRα; [2]): 8.51 ± 0.42 µM | Emax (hLXRα; [3]): 70.2 ± 3.9% | LXR isoform selectivity profile (hLXRα): selective LXRα agonists

CC[C@@H](C(C)C)[C@@H]1O[C@H]1[C@@H](C)[C@H]1CC[C@H]2[C@@H]3CC=C4C[C@@H](O)CC[C@]4(C)[C@H]3CC[C@]12C [Compound 14, (22S,23S)-22,23-Epoxystigmast-5-ene-3β-ol]
EC50 (hLXRβ; [1]): 12.7 ± 2.7 µM | Emax (hLXRβ; [4]): 36.3 ± 3% | EC50 (hLXRα; [2]): 16.4 ± 0.62 µM | Emax (hLXRα): 56.8 ± 4.6%

CC(C)[C@@H](C)[C@H]1O[C@@H]1[C@@H](C)[C@H]1CC[C@H]2C3=CC=C4C[C@@H](O)CC[C@]4(C)[C@H]3CC[C@]12C [Compound 15, (22R,23R)-22,23-Epoxyergosta-5,7-diene-3β-ol]
EC50 (hLXRβ; [1]): 7.2 ± 0.94 µM | Emax (hLXRβ; % of compound effect versus 8 μM of 22R-HC, read-out: LXRβ Efficacy (%) ± SD): 30.4 ± 10.6% | PXR activation (hPXR): slight activation of PXR | EC50 (hLXRα; [2]): 4.11 ± 0.31 µM | Emax (hLXRα; [3]): 93.2 ± 5.8%

CC(C)[C@@H](C)[C@@H](O)C[C@@H](C)[C@H]1CC[C@H]2C3=CC=C4C[C@@H](O)CC[C@]4(C)[C@H]3CC[C@]12C [Compound 21, (23S)-3β-Ergost-5,7-diene-3,23-diol]
inhibition of TNFα expression (TNFα): the most active | PXR activation (hPXR): slight activation of PXR | inhibition of CCL2 expression (MCP-1/CCL2): same grade of potency of the positive control T0901317 | EC50 (hLXRα; [2]): 8.07 ± 1.6 µM | Emax (hLXRα; [3]): 159 ± 41.3% | LXR isoform selectivity profile (hLXRα): selective LXRα agonists

CC[C@](O)(CC[C@@H](C)[C@H]1CCC2C3CC=C4C[C@@H](O)CC[C@]4(C)C3CC[C@@]21C)C(C)C (stereo partly drawn) [Compound 29]
EC50 (hLXRβ): 3.21 ± 0.6 µM | Emax (hLXRβ; [4]): 48.4 ± 5% | beta/alfa efficacy ratio (hLXRβ; LXRβ efficacy over LXRα efficacy): 4.4 | EC50 (hLXRα): 3.72 ± 0.5 µM | Emax (hLXRα): 11 ± 4.08%

— US20200157135A1, “SIDE-CHAIN MODIFIED ERGOSTEROL AND STIGMASTEROL DERIVATIVES AS LIVER X RECEPTOR MODULATORS” (Ospedale San Raffaele srl, priority 2017, published 2020)
